From patent US20130310379A1, “MODULATORS OF METHYL MODIFYING ENZYMES, COMPOSITIONS AND USES THEREOF” (CONSTELLATION PHARMACEUTICALS, priority 2010, published 2013)

molecular target: EZH2 (Homo sapiens, UniProt Q15910); experiment: EZH2 assay: rPRC2 with biotinylated oligonucleosome substrates and 3H SAM, FlashPlate scintillation counting, IC50; assay type: biochemical; conditions: rPRC2, biotinylated oligonucleosome substrates, 3H SAM; read-out: EZH2 IC50
How it was run: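 rPRC2 (2 nM EZH2) pre-incubated 20 min with compound (80 to 0.16 uM, ten 2-fold steps), then 60 min reaction with 0.2 uM 3H SAM, 0.2 uM biotinylated oligonucleosomes, 3.6 uM H3K27me3 peptide in Tris pH 8.5. SAH/EDTA quench; 4-parameter IC50 fit.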

EZH2, sequence (Q15910 whole entry): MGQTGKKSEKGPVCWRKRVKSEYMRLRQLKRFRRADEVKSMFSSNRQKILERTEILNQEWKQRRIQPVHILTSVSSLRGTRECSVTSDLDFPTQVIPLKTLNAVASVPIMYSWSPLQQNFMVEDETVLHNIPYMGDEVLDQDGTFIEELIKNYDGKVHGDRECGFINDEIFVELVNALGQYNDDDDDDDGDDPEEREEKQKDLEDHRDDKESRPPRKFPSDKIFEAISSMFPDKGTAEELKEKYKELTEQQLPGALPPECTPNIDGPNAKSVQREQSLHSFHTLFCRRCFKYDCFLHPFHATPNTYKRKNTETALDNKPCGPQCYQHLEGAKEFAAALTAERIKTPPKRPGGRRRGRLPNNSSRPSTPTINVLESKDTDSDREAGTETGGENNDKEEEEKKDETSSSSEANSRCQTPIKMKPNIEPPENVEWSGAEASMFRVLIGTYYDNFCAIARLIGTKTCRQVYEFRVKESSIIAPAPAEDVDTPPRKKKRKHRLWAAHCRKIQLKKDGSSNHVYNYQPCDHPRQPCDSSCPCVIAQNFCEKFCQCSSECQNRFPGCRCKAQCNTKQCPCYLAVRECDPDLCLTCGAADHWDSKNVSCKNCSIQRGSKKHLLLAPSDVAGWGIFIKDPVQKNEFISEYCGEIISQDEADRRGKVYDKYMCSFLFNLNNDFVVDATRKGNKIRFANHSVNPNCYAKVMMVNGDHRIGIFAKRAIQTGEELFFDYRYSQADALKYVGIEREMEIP
EZH2, sequence (O75530 whole entry partner): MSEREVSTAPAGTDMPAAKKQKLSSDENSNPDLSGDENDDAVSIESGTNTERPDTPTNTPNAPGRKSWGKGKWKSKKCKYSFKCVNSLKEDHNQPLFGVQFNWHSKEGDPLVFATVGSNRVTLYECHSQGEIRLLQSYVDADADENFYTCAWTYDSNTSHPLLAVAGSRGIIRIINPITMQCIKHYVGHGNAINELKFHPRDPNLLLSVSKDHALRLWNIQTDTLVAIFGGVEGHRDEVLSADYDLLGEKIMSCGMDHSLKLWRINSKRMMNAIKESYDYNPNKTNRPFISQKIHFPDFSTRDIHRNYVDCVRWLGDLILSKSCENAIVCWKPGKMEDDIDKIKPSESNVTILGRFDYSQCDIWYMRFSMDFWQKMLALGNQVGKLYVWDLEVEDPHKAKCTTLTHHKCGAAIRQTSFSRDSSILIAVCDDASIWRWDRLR
EZH2, sequence (Q15022 whole entry partner): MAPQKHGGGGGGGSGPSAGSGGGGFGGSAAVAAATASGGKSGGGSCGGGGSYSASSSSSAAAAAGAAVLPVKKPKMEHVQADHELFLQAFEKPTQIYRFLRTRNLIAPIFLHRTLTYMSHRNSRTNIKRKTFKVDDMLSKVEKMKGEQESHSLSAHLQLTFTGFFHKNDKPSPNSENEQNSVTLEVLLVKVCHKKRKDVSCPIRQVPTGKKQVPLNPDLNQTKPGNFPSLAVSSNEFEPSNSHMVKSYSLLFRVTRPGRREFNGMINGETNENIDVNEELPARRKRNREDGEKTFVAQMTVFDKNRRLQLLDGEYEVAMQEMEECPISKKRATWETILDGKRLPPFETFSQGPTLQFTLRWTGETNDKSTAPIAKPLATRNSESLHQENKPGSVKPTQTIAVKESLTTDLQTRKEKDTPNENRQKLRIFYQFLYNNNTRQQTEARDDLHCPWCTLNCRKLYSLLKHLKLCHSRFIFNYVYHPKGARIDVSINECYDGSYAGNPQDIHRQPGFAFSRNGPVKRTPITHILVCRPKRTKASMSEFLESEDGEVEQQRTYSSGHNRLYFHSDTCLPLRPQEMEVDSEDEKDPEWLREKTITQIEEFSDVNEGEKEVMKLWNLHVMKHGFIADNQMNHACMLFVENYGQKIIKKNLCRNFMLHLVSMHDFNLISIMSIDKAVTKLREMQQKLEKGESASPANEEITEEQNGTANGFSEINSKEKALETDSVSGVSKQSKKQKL

SMILES | IC50 [µM]
CC1(C)CC(NC(=O)c2ccc(CCOc3ccccc3)cc2)CC(C)(C)N1 [Compound I-292] | > 80
CC1CCCCC1Oc1ccc(C(=O)NC2CC(C)(C)NC(C)(C)C2)cc1 (centres unmarked) [Compound I-298] | > 80
CC1(C)CC(NC(=O)c2ccc(OC3CCCC3)cc2)CC(C)(C)N1 [Compound I-299] | > 80
CC1(C)CC(NC(=O)c2ccc(Sc3ccccc3)c(Cl)c2)CC(C)(C)N1 [Compound I-300] | 20 to 80
Cc1ccccc1Sc1ccc(C(=O)NC2CC(C)(C)NC(C)(C)C2)cc1Cl [Compound I-302] | 20 to 80
CC1(C)CC(NC(=O)c2ccc(-n3cnc4ccccc43)c(Cl)c2)CC(C)(C)N1 [Compound I-303] | > 80
CC1(C)CC(NC(=O)c2ccc(Oc3ccccc3CC#N)cc2)CC(C)(C)N1 [Compound I-305] | 20 to 80
CC1(C)CC(NCc2ccc(Oc3ccccc3C#N)cc2)CC(C)(C)N1 [Compound I-306] | > 80
CC1(C)CC(NC(=O)c2ccc(Oc3ccccc3-c3nn[nH]n3)c(Cl)c2)CC(C)(C)N1 [Compound I-313] | > 80
CC1(C)CC(NC(=O)c2ccc(Oc3cccc4c(N)nccc34)cc2)CC(C)(C)N1 [Compound I-316] | 20 to 80
CC1(C)CC(NC(=O)c2ccc(Oc3cccc4c(=O)[nH]ccc34)cc2)CC(C)(C)N1 [Compound I-317] | > 80
CC1(C)CC(NC(=O)c2ccc(Oc3ccncc3)c(Br)c2)CC(C)(C)N1 [Compound I-318] | 20 to 80
CC1(C)CC(NC(=O)c2ccc(Oc3ccncc3)cc2)CC(C)(C)N1 [Compound I-319] | > 80
COc1ncccc1-c1ccccc1Oc1ccc(C(=O)NC2CC(C)(C)NC(C)(C)C2)cc1Cl [Compound I-321] | > 80
CC1(C)CC(NC(=O)c2ccc(-n3ccc4ccccc43)c(Cl)c2)CC(C)(C)N1 [Compound I-328] | 20 to 80
N#Cc1c(Oc2ccc(C(=O)NC3CCNCC3C#N)cc2Cl)cccc1-c1ccnnc1 (centres unmarked) [Compound I-329] | > 80
CC1(C)CC(NC(=O)c2ccc(Oc3cccc4cccnc34)cc2)CC(C)(C)N1 [Compound I-331] | 20 to 80
Cc1cc(C(=O)NC2CC(C)(C)NC(C)(C)C2)cc(C)c1Oc1ccccc1C#N [Compound I-335] | 20 to 80
CCN(C(=O)c1ccc(Oc2ccccc2C#N)c(Cl)c1)C1CC(C)(C)NC(C)(C)C1 [Compound I-341] | > 80
CC1(C)CC(NC(=O)c2ccc(Oc3ccncc3C#N)c(Cl)c2)CC(C)(C)N1 [Compound I-349] | 5 to 20
CC1(C)CC(NC(=O)c2ccc(Oc3cccc4cnc(N)cc34)cc2)CC(C)(C)N1 [Compound I-350] | 5 to 20

SMILES | IC50 [µM]
CC1(C)CC(NC(=O)c2ccc(Oc3ccccc3C(=O)O)c(Cl)c2)CC(C)(C)N1 [Compound I-353] | > 80
CC1(C)CC(NC(=O)c2ccc(Oc3cccc(C(=O)O)c3)c(Cl)c2)CC(C)(C)N1 [Compound I-354] | > 80
CC1(C)CC(NC(=O)c2ccc([S+]([O-])c3ccccc3)cc2)CC(C)(C)N1 (centres unmarked) [Compound I-355] | > 80
CC1(C)CC(NC(=O)c2ccc(S(=O)(=O)c3ccccc3)cc2)CC(C)(C)N1 [Compound I-357] | > 80
CC1(C)CC(NC(=O)c2ccc(Oc3ccc(F)cc3C#N)c(Cl)c2)CC(C)(C)N1 [Compound I-359] | 5 to 20
CC1(C)CC(NC(=O)c2ccc(Oc3cccc(-c4cccnc4N)c3C#N)c(Cl)c2)CC(C)(C)N1 [Compound I-361] | 5 to 20
N#Cc1ccccc1Oc1ccc(C(=O)NC2CCN(c3cccnc3)CC2)cc1Cl [Compound I-368] | > 80
CC1(C)CC(NC(=O)c2ccc(Oc3cccc4c[nH]c(=O)cc34)cc2)CC(C)(C)N1 [Compound I-370] | 20 to 80
CC1(C)CC(NC(=O)c2ccc(Oc3cccc4nccn34)c(Cl)c2)CC(C)(C)N1 [Compound I-372] | 5 to 20
N#Cc1c(Oc2ccc(C(=O)NC3CCNCC3)cc2Cl)cccc1-c1cn[nH]c1 [Compound I-373] | > 80
CC1(C)CC(NC(=O)c2ccc(-c3ccc4cnccc4c3)c(Cl)c2)CC(C)(C)N1 [Compound I-376] | 20 to 80
CC1(C)CC(NC(=O)c2ccc(-c3ccc4ccncc4c3)c(Cl)c2)CC(C)(C)N1 [Compound I-377] | 5 to 20
N#Cc1ccccc1Oc1ccc(C(=O)N[C@@H]2C[C@H]3CC[C@@H](C2)N3)cc1Cl [Compound I-380] | 20 to 80
CC1(C)CC(NC(=O)c2ccc(OC3CCNCC3)c(Cl)c2)CC(C)(C)N1 [Compound I-382] | > 80
Cc1cccc(Oc2ccc(C(=O)NC3CC(C)(C)NC(C)(C)C3)cc2Cl)c1-c1ccncc1 [Compound I-383] | 20 to 80
CC1(C)CC(NC(=O)c2ccc(N3CCOc4ccccc43)c(Cl)c2)CC(C)(C)N1 [Compound I-384] | 20 to 80
CC1(C)CC(NC(=O)c2ccc(Oc3ccccc3C(N)=O)c(Br)c2)CC(C)(C)N1 [Compound I-388] | 5 to 20
COC(=O)C1CC(NC(=O)c2ccc(Oc3ccccc3C#N)c(Cl)c2)CCN1 (centres unmarked) [Compound I-389] | > 80
Cn1cncc1COc1ccc(C(=O)NC2CC(C)(C)NC(C)(C)C2)cc1Cl [Compound I-390] | > 80
CC1(C)CC(NC(=O)c2ccc(OC3CNC3)c(Cl)c2)CC(C)(C)N1 [Compound I-392] | > 80
CC1(C)CC(NC(=O)c2ccc(OC3CCCNC3)c(Cl)c2)CC(C)(C)N1 (centres unmarked) [Compound I-393] | > 80

Second part, the compound after the results:

IC50 [µM] | SMILES
< 5 | CC1(C)CC(NC(=O)c2ccc(Oc3cccc4cnccc34)c(Br)c2)CC(C)(C)N1 [Compound I-291]
5 to 20 | Cc1ncccc1-c1ccccc1Oc1ccc(C(=O)NC2CC(C)(C)NC(C)(C)C2)cc1Cl [Compound I-293]
< 5 | COC(=O)c1ccc(-c2ccccc2Oc2ccc(C(=O)NC3CC(C)(C)NC(C)(C)C3)cc2Cl)cn1 [Compound I-294]
< 5 | Cc1ccc(-c2ccccc2Oc2ccc(C(=O)NC3CC(C)(C)NC(C)(C)C3)cc2Cl)cn1 [Compound I-295]
< 5 | Cc1cncc(-c2ccccc2Oc2ccc(C(=O)NC3CC(C)(C)NC(C)(C)C3)cc2Cl)c1 [Compound I-296]
5 to 20 | Cc1ccncc1-c1ccccc1Oc1ccc(C(=O)NC2CC(C)(C)NC(C)(C)C2)cc1Cl [Compound I-297]
< 5 | Cc1cccc(Oc2ccc(C(=O)NC3CC(C)(C)NC(C)(C)C3)cc2Cl)c1C#N [Compound I-309]
< 5 | CCc1cccc(Oc2ccc(C(=O)NC3CC(C)(C)NC(C)(C)C3)cc2Cl)c1C#N [Compound I-310]
< 5 | CC1(C)CC(NC(=O)c2ccc(Oc3cccc(C(F)(F)F)c3C#N)c(Cl)c2)CC(C)(C)N1 [Compound I-311]
5 to 20 | CC1(C)CC(NC(=O)c2ccc(Oc3cccc4c(Cl)nccc34)cc2)CC(C)(C)N1 [Compound I-314]
< 5 | CC1(C)CC(NC(=O)c2ccc(Oc3cccc4cnc(Cl)cc34)cc2)CC(C)(C)N1 [Compound I-315]
< 5 | COC(=O)c1cncc(-c2ccccc2Oc2ccc(C(=O)NC3CC(C)(C)NC(C)(C)C3)cc2Cl)c1 [Compound I-322]
< 5 | Cc1ccc(-c2cccc(Oc3ccc(C(=O)NC4CC(C)(C)NC(C)(C)C4)cc3Cl)c2C#N)s1 [Compound I-323]
5 to 20 | Cc1ccccc1Oc1ccc(C(=O)NC2CC(C)(C)NC(C)(C)C2)cc1Cl [Compound I-325]
5 to 20 | Cc1cc(C(=O)NC2CC(C)(C)NC(C)(C)C2)ccc1Oc1ccccc1C(C)C [Compound I-332]
< 5 | Cn1cc(-c2cccc(Oc3ccc(C(=O)NC4CC(C)(C)NC(C)(C)C4)cc3Cl)c2C#N)cn1 [Compound I-336]

IC50 [µM] | SMILES
< 5 | CC1(C)CC(NC(=O)c2ccc(Oc3cccc(-c4ccc[nH]4)c3C#N)c(Cl)c2)CC(C)(C)N1 [Compound I-337]
< 5 | CC1(C)CC(NC(=O)c2ccc(Oc3cccc(-c4ccn[nH]4)c3C#N)c(Cl)c2)CC(C)(C)N1 [Compound I-338]
< 5 | Cc1cc(C(=O)NC2CC(C)(C)NC(C)(C)C2)ccc1Oc1cccc(CC#N)c1 [Compound I-345]
5 to 20 | CC1(C)CC(NC(=O)c2ccc(Oc3cccc4cccnc34)c(Cl)c2)CC(C)(C)N1 [Compound I-346]
< 5 | CNc1cccc(Oc2ccc(C(=O)NC3CC(C)(C)NC(C)(C)C3)cc2Cl)c1C#N [Compound I-348]
< 5 | CC1(C)CC(NC(=O)c2cc(F)c(Oc3ccccc3C#N)c(Br)c2)CC(C)(C)N1 [Compound I-351]
< 5 | Cc1ncccc1-c1cccc(Oc2ccc(C(=O)NC3CC(C)(C)NC(C)(C)C3)cc2Cl)c1C#N [Compound I-352]
< 5 | Cc1cncc(-c2cccc(Oc3ccc(C(=O)NC4CC(C)(C)NC(C)(C)C4)cc3Cl)c2C#N)c1 [Compound I-360]
< 5 | Cn1cc(-c2ccccc2Oc2ccc(C(=O)NC3CC(C)(C)NC(C)(C)C3)cc2Cl)nn1 [Compound I-363]
< 5 | Cc1ccncc1-c1cccc(Oc2ccc(C(=O)NC3CC(C)(C)NC(C)(C)C3)cc2Cl)c1C#N [Compound I-365]
< 5 | COc1ccc(-c2cccc(Oc3ccc(C(=O)NC4CC(C)(C)NC(C)(C)C4)cc3Cl)c2C#N)cn1 [Compound I-366]
< 5 | CC1(C)CC(NC(=O)c2ccc(Oc3cccc(-c4cncs4)c3C#N)c(Cl)c2)CC(C)(C)N1 [Compound I-371]
< 5 | CC1(C)CC(NC(=O)c2ccc(Oc3cccc(-c4cnn(CC(=O)O)c4)c3C#N)c(Cl)c2)CC(C)(C)N1 [Compound I-374]
< 5 | CC1(C)CC(NC(=O)c2ccc(Oc3cccc(-c4cnn(CC(N)=O)c4)c3C#N)c(Cl)c2)CC(C)(C)N1 [Compound I-386]
< 5 | CNC(=O)Cn1cc(-c2cccc(Oc3ccc(C(=O)NC4CC(C)(C)NC(C)(C)C4)cc3Cl)c2C#N)cn1 [Compound I-387]
< 5 | CC1(C)CC(NC(=O)c2ccc(Oc3cccc(N4CCOCC4)c3C#N)c(Cl)c2)CC(C)(C)N1 [Compound I-391]
